In US20230416750A1, “CATALYTIC SEQUENCE BASED METHODS OF TREATING OR PREVENTING BACTERIAL INFECTIONS” (priority 2020, published 2023):
{3CholTEG} = cholesteryl-TEG conjugate

Assays:
[1] = tested on: Klebsiella pneumoniae strain ATCC BAA-1705; test: Galleria mellonella virulence assay (larvae viability); type: in vivo; settings: infected G. mellonella larvae
Procedure: Larvae virulence experiments were performed in the facilities of Pharmaseed LTD (Ness Ziona, Israel). G. larvae were obtained from BioSystems Technologies (Exeter, UK) and stored in the shipment boxes at 15° C. for two weeks or at room temperature for immediate use with no requirement of food. Larvae were randomly selected from a large batch for an approximate weight of 250±25 mg. Larvae were separated from sawdust and selected for plumped, lighter colored worms. Darker colored, dehydrated worms, were discarded. Each treatment group (20 larvae per group) contained 10 larvae placed in a 10 cm empty Petri dish (2 dishes per treatment group), on a filter paper.
Bacterial inoculums were prepared from cultures grown overnight at 37° C. in TSB medium (HyLabs, Israel) and washed with sterile 1×PBS. Bacterial suspension concentration was determined by McFarland (Densicheck plus, Biomerieux) and diluted in sterile PBS to receive 10^9 CFU/mL. Serial dilutions of the bacterial suspensions were made and spots were plated on blood agar plates. The plates were incubated at 37° C. and on the next day CFU was counted in order to determine final injected bacterial concentrations.
Each larva was initially injected with 5×10^5 cells into the proleg. A second injection to the proleg was done with meropenem (10 μg/g), meropenem+DNAzyme (8.52 μg/g) or sterile PBS. […]

β-lactamase = settings: DNAzyme 1.25 M (so in the source) with 128 μg/ml meropenem, 1 h; vs untreated control
Procedure: Bacterial strains were streaked from frozen LB+glycerol stocks onto LB agar plates and incubate for 24 hours at 37° C. Single colonies were grown overnight at 37° C. in 3 ml of LB. Cultures were diluted 1:1000 in 2 ml LB supplemented with 128 μg/ml meropenem and DNAzyme were added to a final concentration of 1.25 M. Cultures were incubated at 37° C. with continuous shaking for 1 h. Measurement of the β-lactamase activity assay was done using colorimetric kit (abcam), according to the manufacture's protocol.

Klebsiella pneumoniae = test: Lung ex-vivo infection model (mouse lung punches, CFU); type: cell-based; settings: sub-toxic meropenem alone or with DNAzyme/scramble; 24 hours
Procedure: Lungs were harvested from 5-10 mice (C57BL/6, 6-8 weeks old) and placed in petri dishes containing DMEM 5% FCS. The tissue was divided into circular pieces 3 mm in diameter with a biopsy punch and transferred to poly-propanol tubes with 3 ml DMEM. DMEM was applied with meropenem and DNAzymes, as indicated. To each respective tube 10 μl of mid-logarithmic Klebsiella pneumoniae culture was added—with three technical repeats for each condition. The plates were incubated at 37° C. for approximately 1 days (24 hours), washed twice with PBS.
For CFU of bacteria infecting ex vivo tissue culture: individual punches or their growth media were collected, Punches were resuspended in 1 ml PBS (Biological Industries), and free-living bacteria were pelleted and resuspended in PBS at the same volume. Samples were thoroughly vortexed (5 min). The samples were then mildly manually crushed using 1.5 ml pestle. In all cases, to determine the number of viable cells, samples were serially diluted in PBS, plated on LB plates, and colonies were counted after incubation at 37° C. overnight.

[2] = tested on: Klebsiella pneumoniae ATCC BAA-1705; test: Growth assays / MIC / viability (OD600, CFU) with meropenem; type: cell-based
Procedure: Cultures were incubated at 37° C. with continuous shaking and the optical density OD600 was recorded every 30 minutes using Ultrospec 10 (biochrom). Viability was tested by serial dilutions (1:100) of the bacterial suspensions and spots were plated on LB plates. The plates were incubated at 37° C. and on the next day CFU was counted to determine culture viability.

bla-KPC RNA transcripts = test: Bla-KPC quantification from bacterial cells (qPCR); type: cell-based; settings: DNAzyme 1.25 μM with sub-toxic meropenem (128 μg/ml), 20 minutes; vs untreated control
Procedure: Total RNA was extracted from each sample using RNeasy Mini Kit (Qiagen), according to the manufacturer's instructions. The concentration, purity, and integrity of total RNA was determined using NanoDrop and gel electrophoresis. cDNA synthesis was performed using iScript™ cDNA synthesis (Bio-Rad) according to the manufacturer's instructions. Equal amounts of total RNA (1000 ng/20 μL) were reverse-transcribed in all samples. Reactions were incubated in a CFX96 Touch Real-Time PCR detection system (Bio-Rad) by the following program: 25° C. for 5 minutes, 46° C. for 20 minutes, 95° C. for 60 seconds. Bla-KPC expression was determined by qPCR, with primers designed using NCBI primer-BLAST. qPCR analysis was performed using the iTaq Universal SYBR Green Supermix (Bio-Rad) according to the manufacturer's instructions, in a CFX96 system by the following program: 95° C. for 3 minutes, 39 cycles of 95° C. for 10 seconds and 55° C. for 30 seconds. Melt curves were generated for each sample by heating PCR amplicons from 65° C. to 95° C. with a gradual increase of 0.5° C./0.5 s.

HT-29 cells = type: cell-based; settings: HT-29 human colorectal adenocarcinoma cells, 72 hours; read-out: IC50 of toxicity
Procedure: HT-29 cells (ATCC) were seeded in 24-well plates at 200,000 cells per well. DNAzyme were added to the medium at different concentrations. After 72 hours, PrestoBlue reagent (A13262, Life Technologies Ltd.) was added as a cell viability indicator.

[3] = tested on: Klebsiella pneumoniae (ATCC BAA-1705); test: KP infected thigh muscle model in neutropenic mice; type: in vivo; settings: SC TID, 240 mg/kg meropenem alone or with KPC-337 16, 24 or 32 mg/kg
Procedure: Neutropenia induction: The experiments were performed on female ICR mice age 9-10 weeks. At day (−4) neutropenia induction was performed by cyclophosphamide intraperitoneal (IP) injection at 150 mg/kg and a volume of 10 mL/kg. At day (−1) neutropenia maintenance was performed by cyclophosphamide IP injection at 100 mg/kg and a volume of 10 mL/kg.
Bacterial suspension preparation: At day (−4) KP (ATCC® BAA-1705™) bacteria was streaked out from −80° C. glycerol stock onto LB medium and incubated at 37° C. for 20 hours and then stored at 2-8° C. At day (−1) single colonies of the KP (ATCC® BAA-1705™ bacteria) were picked by using an inoculation loop (Greiner, 731175) and suspended in 20 mL Tryptic Soy broth (TSB) (Hylabs, BIO-MO11) in Erlenmeyer and incubated at 37° C. overnight (=starter) with shaking at 180 rpm. In the morning of dosing day, bacterial starter was diluted in fresh TSB (total of 20 mL) and incubated for about 1-3 hours at 37° C. […] Bacterial suspension concentration was determined by McFarland (Densicheck plus, Biomerieux) and diluted in sterile PBS to a concentration of 2.2×10^7 CFU/mL. […]
Bacterial burden determination: Homogenate samples dilutions were plated on LB agar plates at various dilutions to determine the colony forming units (CFUs). Plates were incubated overnight (at 37° C.), and bacterial burden was calculated and expressed as CFUs/gram of tissue.

Row | Compound | larvae viability ([1]; sub-toxic meropenem 10 μg/g with DNAzyme (8.52 μg/g)) [%] | reduction of β-lactamase activity (β-lactamase) [%] | reduction of capacity of the bacteria to infect and colonize lung tissue (bacterial load in the tissue) (Klebsiella pneumoniae) | reduction of the free-living cells that remained in the growth media (Klebsiella pneumoniae) | growth inhibitory effect (optical density) ([2]; combination of subtoxic meropenem concentration and DNAzyme) | effect on viability of the bacterial cells (cell counts over time) ([2]; combined treatment of meropenem and DNAzyme) | reduction of MIC levels ([2]; meropenem MIC with vs without DNAzyme) | MIC of meropenem ([2]; with addition of DNAzyme KPC-337) [µg/mL] | reduction of transcript levels of bla-KPC (bla-KPC RNA transcripts) | IC50 (HT-29 cells) [µM] | reduction of bacterial load in the infection site [3] | reduction of the viability of the larvae ([1]; sub-toxic meropenem 10 μg/g alone or with scramble) [%] | MIC ([2]; Klebsiella pneumoniae, ATCCBAA1705, without DNAzyme) [µg/mL]
1 | GCCTGTTGggctagctacaacgaCAGATATTT/3CholTEG/ (GCCTGTTGGGCTAGCTACAACGACAGATATTT; 3' {3CholTEG}, sugars by position and backbone not given here) [KPC-337, DNAzyme targeting bla carbapenemase of Klebsiella pneumoniae] | 100 | 70 | 1.5-2 fold | 1-1.5 fold change | complete arrest of growth | bactericidal | two fold | 128 | two fold | 20 | 2-3 log fold | – | –
2 | C[C@@H](O)[C@H]1C(=O)N2C(C(=O)O)=C(S[C@@H]3CN[C@H](C(=O)N(C)C)C3)[C@H](C)[C@H]12 [meropenem, reference compound] | – | – | did not reduced the bacterial load | did not reduced the bacterial load | – | – | – | – | – | – | slightly reduced the bacterial load | 40 | 256
